This note sets out measurements from patent US20070077215A1, “Administration of phenylfurymethylthiazolidine-2,4-dione or phenylthienymethylthiazolidine-2,4-dione compounds for promoting and/or inducing and/or stimulating the pigmentation of keratinous substances and/or limiting their depigmentation and/or their whitening” (L'OREAL, priority 2005, published 2007).

pIC50: −log10 of the molar value.

The target in the assay is T1, Type-1 15-PGDH (Homo sapiens, UniProt P15428).
T1 construct: made in house
T1 sequence (P15428 1-266): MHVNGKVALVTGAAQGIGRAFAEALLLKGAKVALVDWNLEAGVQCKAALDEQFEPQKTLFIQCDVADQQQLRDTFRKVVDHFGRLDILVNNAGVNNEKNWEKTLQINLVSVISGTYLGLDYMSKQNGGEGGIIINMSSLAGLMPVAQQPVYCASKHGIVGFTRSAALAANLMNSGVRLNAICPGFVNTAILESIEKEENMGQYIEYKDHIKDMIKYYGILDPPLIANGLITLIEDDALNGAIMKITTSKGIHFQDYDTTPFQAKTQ
In words: Test on type-1 15-PGDH (spectrophotometric enzyme inhibition). In kind it is biochemical. The note with it: Tris buffer pH 7.4, 1.5 mM β-NAD, 50 μM prostaglandin E2, 37° C., 340 nm; read-out: IC50dh (concentration that reduces the enzymatic activity of 15-PGDH by 50%). The protocol: The enzyme 15-PGDH is obtained as disclosed in FR 02/05067, assigned to the assignee hereof, in suspension in a medium adjusted to a concentration of 0.3 mg/ml and then blocked at −80° C. For the requirements of the test, this suspension is defrosted and stored in ice.
Furthermore, a 100 mM, pH=7.4, Tris buffer comprising 0.1 mM of dithiothreitol (D5545, Sigma-Aldrich, L'isle D'Abeau Chesne, BP 701, 38297, Saint Quentin Fallavier) 1.5 mM of β-NAD (N6522, Sigma-Aldrich, L'isle D'Abeau Chesne, BP 701, 38297, Saint Quentin Fallavier) and 50 μM of prostaglandin E2 (P4172, Sigma-Aldrich, L'isle D'Abeau Chesne, BP 701, 38297, Saint Quentin Fallavier) is prepared.
0.965 ml of this buffer (adjusted beforehand to 37° C.) is introduced into the cell of a spectrophotometer (Perkin-Elmer, Lambda 2) thermostatically controlled at 37° C., the measuring wavelength of which is adjusted to 340 nm. 0.035 ml of enzymatic suspension at 37° C. is introduced into the cell concomitantly with the recording (corresponding to an increase in the optical density at 340 nm). The maximum reaction rate is recorded.
The test values (comprising compound 1) are compared with the control value (without compound 1); the results shown represent either the percentage of inhibition of the enzymatic activity of 15-PGDH for a given concentration of compound of formula (I) or the concentration at which compound 1 reduces the enzymatic activity of 15-PGDH by 50%, namely IC50dh.
In the case of `O=C1N=C(O)C(Cc2ccc(-c3ccc(C(=O)O)cc3)o2)S1` (stereo not drawn) [Compound 1, 4-{5-[(2,4-dioxo-1,3-thiazolidin-5-yl)methyl]-2-furyl}benzoic acid], the pIC50 is 5.52.

`O=C1NC(=O)C(Cc2ccc(-c3cccc(C(F)(F)F)c3)o2)S1` (stereo not drawn) [Compound 2, 5-[5-(3-(trifluoromethyl)phenyl)fur-2-ylmethyl]-1,3-thiazolidine-2,4-dione]: the pIC50 was 5.09.

For `O=C1NC(=O)C(Cc2ccc(-c3cccc(Cl)c3)o2)S1` (stereo not drawn) [Compound 3, 5-{[5-(3-chlorophenyl)-2-furyl]methyl}-1,3-thiazolidine-2,4-dione], the pIC50 is 5.28.

With `CCOC(=O)c1cccc(-c2ccc(CC3SC(=O)NC3=O)o2)c1` (stereo not drawn) [Compound 4, Ethyl 3-{5-[(2,4-dioxo-1,3-thiazolidin-5-yl)methyl]-2-furyl}benzoate], the pIC50 is 5.34.

In the case of `O=C1NC(=O)C(Cc2ccc(-c3ccc(C(F)(F)F)cc3)s2)S1` (stereo not drawn) [Compound 5, 5-({5-[4-(trifluoromethyl)phenyl]thien-2-yl}methyl)-1,3-thiazolidine-2,4-dione], the pIC50 is 4.75.

For the compound `O=C1NC(=O)C(Cc2ccc(-c3cccc(CO)c3)s2)S1` (stereo not drawn) [Compound 7, 5-({5-[3-(Hydroxymethyl)phenyl]-2-thienyl}methyl)-1,3-thiazolidine-2,4-dione], the pIC50 is 4.42.
